{"source": "patent US20040186081A1", "about": "“Naaladase inhibitors for treating opioid tolerance” (Guilford Pharmaceuticals Inc., priority 2003, published 2004)", "key": {"C57/BL mice [1]": {"system": "C57/BL mice", "assay": "animal or person", "assay_type": "in vivo", "conditions": "for ED50: Mus musculus, sc", "experimental": "(§1) Male C57/BL mice (IMP, Lodz, Poland), 22-24 g of body weight were group-housed in the standard laboratory cages and kept in a temperature-controlled colony room (21+2° C.) with a 12-hr light/dark cycle (light on: 07:00, off: 19:00). Commercial food and tap water were available ad libitum. Each experimental group consisted of 7-28 mice per treatment. All mice were used only once.\n(§2) The intensity of the heat stimulus was adjusted so that the baseline tail-flick latency was ˜3 s. […] Each response assessment consisted of two separate measurements taken at different portions of the tail (spaced by 1.5-2 cm) and separated by 15 s. The mean of these responses was used for subsequent comparisons."}, "[2]": {"conditions": "in vivo; cited from earlier work"}, "C57/BL mice [3]": {"system": "C57/BL mice", "assay": "Acute effects in the tail-flick test (Experiment 2)", "assay_type": "in vivo", "experimental": "as §1, §2"}, "NAALADase [4]": {"molecular_target": "T1, NAALADase (Homo sapiens, UniProt Q04609)", "T1 sequence (Q04609 whole entry)": "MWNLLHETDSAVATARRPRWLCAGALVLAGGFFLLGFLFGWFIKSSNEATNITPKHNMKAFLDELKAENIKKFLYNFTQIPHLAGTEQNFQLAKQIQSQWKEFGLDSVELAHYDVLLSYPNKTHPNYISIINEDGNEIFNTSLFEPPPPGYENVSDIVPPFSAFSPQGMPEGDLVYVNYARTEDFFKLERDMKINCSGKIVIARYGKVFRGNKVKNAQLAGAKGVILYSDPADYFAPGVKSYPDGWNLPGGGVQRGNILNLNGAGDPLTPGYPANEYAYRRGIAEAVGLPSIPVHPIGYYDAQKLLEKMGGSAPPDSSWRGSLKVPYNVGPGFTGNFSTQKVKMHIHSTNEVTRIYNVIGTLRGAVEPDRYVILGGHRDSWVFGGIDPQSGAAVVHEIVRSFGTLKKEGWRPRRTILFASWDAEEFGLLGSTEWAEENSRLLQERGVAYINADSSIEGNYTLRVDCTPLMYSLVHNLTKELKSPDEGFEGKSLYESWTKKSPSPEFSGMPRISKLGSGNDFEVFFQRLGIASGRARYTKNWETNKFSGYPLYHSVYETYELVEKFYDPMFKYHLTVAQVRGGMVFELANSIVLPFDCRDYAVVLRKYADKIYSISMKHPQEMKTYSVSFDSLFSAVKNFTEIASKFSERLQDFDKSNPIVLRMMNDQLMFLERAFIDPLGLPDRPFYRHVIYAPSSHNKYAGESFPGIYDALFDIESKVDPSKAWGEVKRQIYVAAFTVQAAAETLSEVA", "conditions": "read-out: Km of NAALADase for NAAG; cited from earlier work"}, "[5]": {"molecular_target": "mGluRII receptors (mGluR3) (Homo sapiens, UniProt Q14832)", "sequence (Q14832 23-879)": "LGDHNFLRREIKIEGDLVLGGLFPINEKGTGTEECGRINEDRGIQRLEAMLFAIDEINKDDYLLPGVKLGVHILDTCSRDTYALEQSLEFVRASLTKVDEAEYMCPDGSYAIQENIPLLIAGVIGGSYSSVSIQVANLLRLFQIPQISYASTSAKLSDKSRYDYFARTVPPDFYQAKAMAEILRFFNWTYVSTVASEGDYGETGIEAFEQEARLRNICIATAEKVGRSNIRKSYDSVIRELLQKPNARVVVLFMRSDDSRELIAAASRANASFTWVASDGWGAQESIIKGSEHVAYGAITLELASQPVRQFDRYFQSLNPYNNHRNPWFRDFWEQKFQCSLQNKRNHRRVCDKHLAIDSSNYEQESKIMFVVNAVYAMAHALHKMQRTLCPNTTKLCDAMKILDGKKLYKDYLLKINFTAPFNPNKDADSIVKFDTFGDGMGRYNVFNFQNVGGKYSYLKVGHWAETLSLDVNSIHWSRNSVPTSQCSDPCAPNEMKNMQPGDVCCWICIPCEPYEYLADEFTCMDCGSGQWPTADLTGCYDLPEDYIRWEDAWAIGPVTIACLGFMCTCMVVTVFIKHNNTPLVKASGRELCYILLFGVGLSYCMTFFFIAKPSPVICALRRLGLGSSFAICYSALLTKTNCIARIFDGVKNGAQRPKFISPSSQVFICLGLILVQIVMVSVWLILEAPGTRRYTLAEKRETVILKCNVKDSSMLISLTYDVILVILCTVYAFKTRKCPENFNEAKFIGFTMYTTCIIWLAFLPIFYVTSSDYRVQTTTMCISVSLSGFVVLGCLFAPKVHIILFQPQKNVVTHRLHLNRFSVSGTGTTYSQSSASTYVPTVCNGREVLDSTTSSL", "conditions": "read-out: EC50 as direct agonist at mGluRII receptors; cited from earlier work"}, "[6]": {"system": "over 100 different receptors, ion channels, transporters, and enzymes including NMDA, AMPA, metabotropic glutamate receptors and glutamate transporters", "conditions": "cited from earlier work"}, "NAALADase [7]": {"molecular_target": "T1, NAALADase", "assay": "In vitro inhibition of NAALADase activity", "assay_type": "biochemical"}}, "note": "Entries after “also recorded” stand apart in the source; their conditions may differ. Peptide text beside a SMILES is read from it."}
{"smiles": "CC12CC3CC(C)(C1)CC(N)(C3)C2", "note": "[Memantine, memantine]", "values": [{"measurement": "effect on the development of morphine tolerance", "setting": "C57/BL mice [1]; mouse, in vivo", "value": "produced an inhibition of morphine tolerance"}]}
{"smiles": "NC1(C(=O)O)CCC2C(C(=O)O)C21", "note": "(single isomer, unassigned; (+)) [LY354740, (+)-2-aminobicyclo [3,1,0] hexane-2,6-dicarboxylic acid]", "values": [{"measurement": "development of morphine tolerance", "setting": "[2]", "value": "inhibit the development of morphine tolerance"}]}
{"smiles": "CN1CC[C@]23c4c5ccc(O)c4O[C@H]2[C@@H](O)C=C[C@H]3[C@H]1C5", "note": "[Morphine]", "values": [{"measurement": "ED50", "setting": "C57/BL mice [1]; 24 h, read-out: Test #1 ED50 (morphine antinociceptive)", "value": "1.49 ± 0.26", "unit": "mg/kg"}, {"measurement": "ED50", "setting": "C57/BL mice [1]; 192 h, read-out: Test #2 ED50 (morphine antinociceptive)", "value": "8.85 ± 2.22", "unit": "mg/kg"}, {"measurement": "ED50", "setting": "C57/BL mice [3]; Mus musculus, sc, read-out: antinociceptive ED50 dose", "value": 3, "unit": "mg/kg"}]}
{"smiles": "CC(=O)N[C@@H](CC(=O)O)C(=O)N[C@@H](CCC(=O)O)C(=O)O", "note": "[NAAG, N-acetyl-aspartyl-glutamate] (Ac-Asp-Glu-OH)", "values": [{"measurement": "Km", "setting": "NAALADase [4]", "value": 540, "unit": "nM"}, {"measurement": "EC50", "setting": "[5]", "value": "~26", "unit": "µM"}]}
{"smiles": "O=C(O)CCC(CP(=O)(O)O)C(=O)O", "note": "(stereo not shown) [2-PMPA, 2-phosphonomethyl pentanedioic acid]", "values": [{"measurement": "effect on the development of morphine tolerance", "setting": "C57/BL mice [1]; 2-PMPA 50 or 100 mg/kg given prior to each dose of morphine", "value": "attenuated the development of morphine tolerance"}, {"measurement": "affinity for over 100 different receptors, ion channels, transporters, and enzymes", "setting": "[6]", "value": "no apparent affinity"}, {"measurement": "effect on antinociceptive effects of morphine", "setting": "C57/BL mice [3]; 100 mg/kg 2-PMPA i.p. 30 min before 1.5 or 3 mg/kg morphine s.c.", "value": "did not affect antinociceptive effects; also recorded: did not differ"}, {"measurement": "tail-flick responses (AUC) compared to placebo+placebo", "setting": "C57/BL mice [3]; 100 mg/kg of 2-PMPA i.p. + placebo", "value": "did not affect tail-flick responses; also recorded: did not differ from placebo+placebo treatment"}]}
{"smiles": "CC(C)(C)c1cc(CC(CC(=O)NO)C(=O)O)cc(C(=O)O)c1", "note": "(stereo not shown) [3-tert-Butyl-5-(2-carboxy-3-hydroxycarbamoyl-propyl)-benzoic acid]", "values": [{"measurement": "IC50", "setting": "NAALADase [7]; read-out: IC50", "value": 296, "unit": "nM"}]}
{"smiles": "O=C(O)c1cc(CNCc2ccco2)cc(C(=O)O)c1", "note": "[5-[[(2-furanylmethyl)amino]methyl]-1,3-benzenedicarboxylic acid]", "values": [{"measurement": "Ki", "setting": "NAALADase [7]", "value": 50, "unit": "µM"}]}
